Assay results reported in patent US9511073B2, “Aromatic amides and uses thereof” (TAXIS Pharmaceuticals, Inc., priority 2011, dated 2016).
In brackets after ≈: the same amount, converted by molar mass.

Test system: Staphylococcus aureus (Isolate ID ATCC 29213)
Test: Bacterial assay: MIC by broth microdilution or agar dilution (CLSI), S. aureus ATCC 29213
Assay type: cell-based
Conditions: Staphylococcus aureus, ATCC29213, read-out: S. aureus MIC (μg/mL) Activity Range, S. aureus (ATCC29213)
Procedure: Compounds are tested for antimicrobial activity by susceptibility testing in liquid or on solid media. Minimum inhibitory concentrations (MICs) for compounds against each strain are determined by the broth microdilution or agar dilution method according to the guidelines of the Clinical Laboratories and Standards Institute, formerly the National Committee for Clinical Laboratory Standards (Clinical Laboratories and Standards Institute. Methods for Dilution Antimicrobial Susceptibility Tests for Bacteria That Grow Aerobically; Approved Standard—Seventh Edition. Document M7-A7. CLSI, Wayne, Pa., 2006; Clinical Laboratories and Standards Institute). The bacterial strains tested include S. aureus (Staphylococcus aureus (Isolate ID ATCC 29213)) and an FtsZ mutant of this isolate (FtsZ-G196A Staphylococcus aureus (Isolate ID GG/190723/sa/1.2)). Compound MICs were determined to be in the following activity ranges “A” activity≦0.25 μg/mL; “B” activity>0.25 μg/mL-1.0 μg/mL; “C” activity>1.0 μg/mL-16 μg/mL; “D” activity>16 μg/mL and ND=not determined. The bracketed entries indicate entantiomer(s) and their activity.

SMILES: NC(=O)c1c(F)ccc(OC(CO)c2nc(-c3ccc(Cl)c(F)c3)c(Br)o2)c1F (stereo not drawn) [Compound 225, 3-(1-(5-bromo-4-(4-chloro-3-fluorophenyl)oxazol-2-yl)-2-hydroxyethoxy)-2,6-difluorobenzamide]
- MIC: 0.25 to 1 µg/mL (≈ 0.508 to 2.03 µM)

SMILES: CC(=O)OCC(Oc1ccc(F)c(C(N)=O)c1F)c1nc(-c2ccc(C(F)(F)F)cn2)c(Br)o1 (stereo not drawn) [Compound 78, 2-(5-bromo-4-(5-(trifluoromethyl)pyridin-2-yl)oxazol-2-yl)-2-(3-carbamoyl-2,4-difluorophenoxy)ethyl acetate]
- MIC: > 16 µg/mL

SMILES: COc1cccc(-c2nc(C(COC(C)=O)Oc3ccc(F)c(C(N)=O)c3F)oc2Br)c1 (stereo not drawn) [Compound 108, 2-(5-bromo-4-(3-methoxyphenyl)oxazol-2-yl)-2-(3-carbamoyl-2,4-difluorophenoxy)ethyl acetate]
- MIC: > 16 µg/mL

SMILES: CS(=O)(=O)OCC(Oc1ccc(F)c(C(N)=O)c1F)c1nc(-c2ccc(Cl)cc2)c(Cl)o1 (stereo not drawn) [Compound 48, 2-(3-carbamoyl-2,4-difluorophenoxy)-2-(5-chloro-4-(4-chlorophenyl)oxazol-2-yl)ethyl methanesulfonate]
- MIC: 1 to 16 µg/mL

SMILES: NC(=O)c1c(F)ccc(OC(CNC(=O)OCc2ccccc2)c2nc(-c3ccc(C(F)(F)F)cc3)c(Br)o2)c1F (stereo not drawn) [Compound 280, benzyl (2-(5-bromo-4-(4-(trifluoromethyl)phenyl)oxazol-2-yl)-2-(3-carbamoyl-2,4-difluorophenoxy)ethyl)carbamate]
- MIC: 0.25 to 1 µg/mL (≈ 0.39 to 1.56 µM)

SMILES: NC(=O)c1c(F)ccc(O[C@H](CO)c2nc(-c3cncs3)c(Br)o2)c1F [Compound 247B, (R)-3-(1-(5-bromo-4-(thiazol-5-yl)oxazol-2-yl)-2-hydroxyethoxy)-2,6-difluorobenzamide]
- MIC: > 16 µg/mL

SMILES: NC(=O)c1c(F)ccc(OC(CO)c2nc(-c3ccc(Br)s3)c(Br)o2)c1F (stereo not drawn) [Compound 237, 3-(1-(5-bromo-4-(5-bromothiophen-2-yl)oxazol-2-yl)-2-hydroxyethoxy)-2,6-difluorobenzamide]
- MIC: 0.25 to 1 µg/mL (≈ 0.477 to 1.91 µM)

SMILES: Cc1cnccc1CNC(=O)OCC(Oc1ccc(F)c(C(N)=O)c1F)c1nc(-c2ccc(C(F)(F)F)cc2)c(Br)o1 (stereo not drawn) [Compound 216, 2-(5-bromo-4-(4-(trifluoromethyl)phenyl)oxazol-2-yl)-2-(3-carbamoyl-2,4-difluorophenoxy)ethyl ((3-methylpyridin-4-yl)methyl)carbamate]
- MIC: 0.25 to 1 µg/mL (≈ 0.381 to 1.53 µM)

SMILES: CC(=O)OCC(Oc1ccc(F)c(C(N)=O)c1F)c1nc(-c2ccc(C(F)(F)F)cc2)oc1Br (stereo not drawn) [Compound 137, 2-(5-bromo-2-(4-(trifluoromethyl)phenyl)oxazol-4-yl)-2-(3-carbamoyl-2,4-difluorophenoxy)ethyl acetate]
- MIC: > 16 µg/mL

SMILES: NC(=O)c1c(F)ccc(OC(C(=O)O)c2nc(-c3ccc(Cl)cc3)c(Cl)o2)c1F (stereo not drawn) [Compound 53, 2-(3-carbamoyl-2,4-difluorophenoxy)-2-(5-chloro-4-(4-chlorophenyl)oxazol-2-yl)acetic acid]
- MIC: > 16 µg/mL

SMILES: CN(C)CC(=O)OCC(Oc1ccc(F)c(C(N)=O)c1F)c1nc(-c2ccc(C(F)(F)F)cc2)c(Br)o1 (stereo not drawn) [Compound 57, 2-(5-bromo-4-(4-(trifluoromethyl)phenyl)oxazol-2-yl)-2-(3-carbamoyl-2,4-difluorophenoxy)ethyl 2-(dimethylamino)acetate]
- MIC: 0.25 to 1 µg/mL (≈ 0.422 to 1.69 µM)

SMILES: CCCc1nc(C(CO)Oc2ccc(F)c(C(N)=O)c2F)oc1Br (stereo not drawn) [Compound 221, 3-(1-(5-bromo-4-propyloxazol-2-yl)-2-hydroxyethoxy)-2,6-difluorobenzamide]
- MIC: 1 to 16 µg/mL (≈ 2.47 to 39.5 µM)

SMILES: COCCn1cnnc1CNC(=O)OCC(Oc1ccc(F)c(C(N)=O)c1F)c1nc(-c2ccc(C(F)(F)F)cc2)c(Br)o1 (stereo not drawn) [Compound 206, 2-(5-bromo-4-(4-(trifluoromethyl)phenyl)oxazol-2-yl)-2-(3-carbamoyl-2,4-difluorophenoxy)ethyl ((4-(2-methoxyethyl)-4H-1,2,4-triazol-3-yl)methyl)carbamate]
- MIC: 1 to 16 µg/mL (≈ 1.45 to 23.2 µM)

SMILES: COCCOCC(Oc1ccc(F)c(C(N)=O)c1F)c1nc(-c2ccc(C(F)(F)F)cc2)c(Br)o1 (stereo not drawn) [Compound 155, 3-(1-(5-bromo-4-(4-(trifluoromethyl)phenyl)oxazol-2-yl)-2-(2-methoxyethoxy)ethoxy)-2,6-difluorobenzamide]
- MIC: 0.25 to 1 µg/mL (≈ 0.442 to 1.77 µM)

SMILES: CN(C)C(=O)c1ccc(-c2nc(C(CO)Oc3ccc(F)c(C(N)=O)c3F)oc2Br)cc1 (stereo not drawn) [Compound 252, 4-(5-bromo-2-(1-(3-carbamoyl-2,4-difluorophenoxy)-2-hydroxyethyl)oxazol-4-yl)-N,N-dimethylbenzamide]
- MIC: > 16 µg/mL

SMILES: C[C@@H](O)[C@@H](Oc1ccc(F)c(C(N)=O)c1F)c1nc(-c2ccc(OC(F)F)cc2)c(Br)o1 [Compound 297, 3-((1R,2R)-1-(5-bromo-4-(4-(difluoromethoxy)phenyl)oxazol-2-yl)-2-hydroxypropoxy)-2,6-difluorobenzamide]
- MIC: < 0.25 µg/mL

SMILES: NC(=O)c1c(F)ccc(O[C@H](CO)c2nc(-c3ccc(F)cc3)c(Br)o2)c1F [Compound 279B, (R)-3-(1-(5-bromo-4-(4-fluorophenyl)oxazol-2-yl)-2-hydroxyethoxy)-2,6-difluorobenzamide]
- MIC: 0.25 to 1 µg/mL (≈ 0.547 to 2.19 µM)

SMILES: CC(=O)NCC(Oc1ccc(F)c(C(N)=O)c1F)c1nc(-c2ccc(C(F)(F)F)cc2)c(Br)o1 (stereo not drawn) [Compound 283, 3-(2-acetamido-1-(5-bromo-4-(4-(trifluoromethyl)phenyl)oxazol-2-yl)ethoxy)-2,6-difluorobenzamide]
- MIC: 1 to 16 µg/mL (≈ 1.82 to 29.2 µM)

SMILES: CCOC(=O)C(Oc1ccc(F)c(C(N)=O)c1F)c1coc(-c2ccc(C(F)(F)F)cc2)n1 (stereo not drawn) [Compound 129, ethyl 2-(3-carbamoyl-2,4-difluorophenoxy)-2-(2-(4-(trifluoromethyl)phenyl)oxazol-4-yl)acetate]
- MIC: 1 to 16 µg/mL (≈ 2.13 to 34 µM)

SMILES: NC(=O)c1cccc(OC(CO)c2nc(-c3ccc(C(F)(F)F)cc3)c(Br)o2)c1F (stereo not drawn) [Compound 159, 3-(1-(5-bromo-4-(4-(trifluoromethyl)phenyl)oxazol-2-yl)-2-hydroxyethoxy)-2-fluorobenzamide]
- MIC: < 0.25 µg/mL

SMILES: CN(Cc1cccnc1)C(=O)OCC(Oc1ccc(F)c(C(N)=O)c1F)c1nc(-c2ccc(C(F)(F)F)cc2)c(Br)o1 (stereo not drawn) [Compound 185, 2-(5-bromo-4-(4-(trifluoromethyl)phenyl)oxazol-2-yl)-2-(3-carbamoyl-2,4-difluorophenoxy)ethyl methyl(pyridin-3-ylmethyl)carbamate]
- MIC: 0.25 to 1 µg/mL (≈ 0.381 to 1.53 µM)

SMILES: CC(=O)OCC(Oc1ccc(F)c(C(N)=O)c1F)c1nc(-c2ccc(C#N)cc2)c(Br)o1 (stereo not drawn) [Compound 76, 2-(5-bromo-4-(4-cyanophenyl)oxazol-2-yl)-2-(3-carbamoyl-2,4-difluorophenoxy)ethyl acetate]
- MIC: 1 to 16 µg/mL

SMILES: NC(=O)c1c(F)ccc(OC(C(N)=O)c2nc(-c3ccc(Cl)cc3)cs2)c1F (stereo not drawn) [Compound 40, 3-(2-amino-1-(4-(4-chlorophenyl)thiazol-2-yl)-2-oxoethoxy)-2,6-difluorobenzamide]
- MIC: 1 to 16 µg/mL (≈ 2.36 to 37.8 µM)

SMILES: CNC(=O)C(Oc1ccc(F)c(C(N)=O)c1F)c1nc(-c2ccc(C(F)(F)F)cc2)c(Cl)o1 (stereo not drawn) [Compound 51, 3-(1-(5-chloro-4-(4-(trifluoromethyl)phenyl)oxazol-2-yl)-2-(methylamino)-2-oxoethoxy)-2,6-difluorobenzamide]
- MIC: 1 to 16 µg/mL (≈ 2.04 to 32.7 µM)

SMILES: NC(=O)c1c(F)ccc(OC(COC(=O)CCCN2C(=O)c3ccccc3C2=O)c2nc(-c3ccc(C(F)(F)F)cc3)c(Br)o2)c1F (stereo not drawn) [Compound 69, 2-(5-bromo-4-(4-(trifluoromethyl)phenyl)oxazol-2-yl)-2-(3-carbamoyl-2,4-difluorophenoxy)ethyl 4-(1,3-dioxoisoindolin-2-yl)butanoate]
- MIC: 0.25 to 1 µg/mL (≈ 0.346 to 1.38 µM)

SMILES: NC(=O)CCC(Oc1ccc(F)c(C(N)=O)c1F)c1nc(-c2ccc(C(F)(F)F)cc2)c(Br)o1 (stereo not drawn) [Compound 101, 3-(4-amino-1-(5-bromo-4-(4-(trifluoromethyl)phenyl)oxazol-2-yl)-4-oxobutoxy)-2,6-difluorobenzamide]
- MIC: 0.25 to 1 µg/mL (≈ 0.456 to 1.82 µM)

SMILES: COc1ccc(-c2nc(C(CO)Oc3ccc(F)c(C(N)=O)c3F)oc2Br)c(F)c1 (stereo not drawn) [Compound 234, 3-(1-(5-bromo-4-(2-fluoro-4-methoxyphenyl)oxazol-2-yl)-2-hydroxyethoxy)-2,6-difluorobenzamide]
- MIC: 0.25 to 1 µg/mL (≈ 0.513 to 2.05 µM)

SMILES: CN(CC(=O)OCC(Oc1ccc(F)c(C(N)=O)c1F)c1nc(-c2ccc(C(F)(F)F)cc2)c(Br)o1)C(=O)OC(C)(C)C (stereo not drawn) [Compound 61, 2-(5-bromo-4-(4-(trifluoromethyl)phenyl)oxazol-2-yl)-2-(3-carbamoyl-2,4-difluorophenoxy)ethyl 2-((tert-butoxycarbonyl)(methyl)amino)acetate]
- MIC: 0.25 to 1 µg/mL (≈ 0.369 to 1.47 µM)

SMILES: NC(=O)c1c(F)ccc(OC(CO)c2nc(-c3ccccc3F)c(Br)o2)c1F (stereo not drawn) [Compound 229, 3-(1-(5-bromo-4-(2-fluorophenyl)oxazol-2-yl)-2-hydroxyethoxy)-2,6-difluorobenzamide]
- MIC: > 16 µg/mL

SMILES: CCOc1cc2nc(C(C)Oc3ccc(F)c(C(N)=O)c3F)sc2nc1Br (stereo not drawn) [Compound 25, 3-(1-(5-bromo-6-ethoxythiazolo[5,4-b]pyridin-2-yl)ethoxy)-2,6-difluorobenzamide]
- MIC: 0.25 to 1 µg/mL (≈ 0.546 to 2.18 µM)

SMILES: Cc1ccc(-c2nc(C(CO)Oc3ccc(F)c(C(N)=O)c3F)oc2Br)cn1 (stereo not drawn) [Compound 231, 3-(1-(5-bromo-4-(6-methylpyridin-3-yl)oxazol-2-yl)-2-hydroxyethoxy)-2,6-difluorobenzamide]
- MIC: > 16 µg/mL

SMILES: CC(Oc1ccc(F)c(C(N)=O)c1F)c1nc(-c2ccc(Cl)cc2)c(Br)o1 (stereo not drawn) [Compound 1]
- MIC: < 0.25 µg/mL

SMILES: NC(=O)c1c(F)ccc(OC(CO)c2nc(-c3cccc(O)c3)c(Br)o2)c1F (stereo not drawn) [Compound 118, 3-(1-(5-bromo-4-(3-hydroxyphenyl)oxazol-2-yl)-2-hydroxyethoxy)-2,6-difluorobenzamide]
- MIC: > 16 µg/mL
